Results: PubChem BioAssay (NCI)
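Cells were grown in 96-well plates and exposed to each compound for 48 hours at five concentrations; endpoints were interpolated linearly between bracketing concentrations, or set to the highest concentration if not reached. GI50 is the concentration that inhibits growth by half. TGI denotes the concentration required for complete inhibition of growth.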

Test system: MDA-MB-468 breast
Assay: DTP human tumour cell line panel, 48 h

In the case of `CC1COCC(C)N1C1=C(Cl)C(=O)c2ccccc2C1=O` (configuration not stated), the GI50 was 1590 nM and the TGI was 3.28 µM.
With `Cc1nc(N)nc2ccccc12` the GI50 was > 100000 nM and the TGI was > 100 µM.
Work on `CC(=O)Oc1ccc(/C=N/NC(N)=S)nc1` yielded a GI50 of 2750 nM and a TGI of 15.3 µM.
In the case of `O=c1c2ccccc2oc2ccc(OCCCCCCN3CCCCCC3)cc12`, the GI50 was 1970 nM and the TGI was 5.87 µM.
For `O=C(Nc1cccc(-n2cc(-c3ccncc3)c(-c3ccc(O)c(Cl)c3)n2)c1)c1cccc(C(F)(F)F)c1`, the GI50 was 3190 nM and the TGI was > 100 µM.
`COc1ccc(CCc2cc(OC)c(OC)c(OC)c2)cc1` was tested, and the GI50 was 59.9 nM and the TGI was > 100 µM.
In the case of `CO[C@]1(CN2CCN3CCCC[C@@H]3C2)/C=C/C[C@H](C)[C@@H](C)S(=O)(=O)NC(=O)c2ccc3c(c2)N(C[C@@H]2CC[C@H]21)C[C@@]1(CCCc2cc(Cl)ccc21)CO3`, the GI50 was 166 nM and the TGI was 1.24 µM.
With `O=C(Nc1ccccc1C(=O)N/N=C(\c1ccccc1)c1ccccn1)c1ccc(F)cc1` the GI50 was 192 nM and the TGI was 1.11 µM.
With `Nc1[nH]c(=O)ncc1CO` the GI50 was > 100000 nM and the TGI was > 100 µM.
`CN1CCN(c2nc(-c3ccncc3)nc3sc4c(c23)CCCCCC4)CC1` showed a GI50 of 5200 nM and a TGI of 20.2 µM.
In the case of `CC1(C)OC2C(COS(N)(=O)=O)SC(n3cnc4cncnc43)C2O1` (configuration not stated), the GI50 was > 100000 nM and the TGI was > 100 µM.
With `O=C(NCCCCCCCNC(=O)OCc1ccc2c(Cl)cc(Cl)c(O)c2n1)OCc1ccc2c(Cl)cc(Cl)c(O)c2n1` the GI50 was 389 nM and the TGI was 1.2 µM.
For `Cc1ccc(C(C)C)cc1NC(=O)Nc1ccc([N+](=O)[O-])cc1`, the GI50 was 2390 nM and the TGI was 6.82 µM.
In the case of `CCOc1cc(-c2ccc[nH]2)[nH]c1/C=C1\N=C(C)C(C(=O)OC)=C1C`, the GI50 was 58.3 nM and the TGI was 0.444 µM.
Work on `CO[C@@]12[C@@H]3NC3CN1C1=C(C(=O)C(N)=C(C)C1=O)[C@@H]2COC(N)=O` (some centres not stated) yielded a GI50 of 238 nM and a TGI of 1.28 µM.
Work on `CC1(C)CC[C@]2(C(N)=O)CC[C@]3(C)C(=CC[C@@H]4[C@@]5(C)C/C(=C/c6ccncc6)C(=O)C(C)(C)[C@@H]5CC[C@]43C)[C@@H]2C1` yielded a GI50 of 2330 nM and a TGI of 7.44 µM.
`Oc1ccc(Cl)cc1Cc1cc(Cl)ccc1O` showed a GI50 of 2190 nM and a TGI of 7.29 µM.
`Cc1cc(C(O)CN(C)C)cc2c1ccc1cc(C(C)C)ccc12` (configuration not stated) gave a GI50 of 1850 nM and a TGI of 3.47 µM.
In the case of `Cc1cc(Cl)ccc1NS(=O)(=O)c1ccc(-c2cnc(C3CC3)o2)cc1`, the GI50 was 86.1 nM and the TGI was 13.7 µM.
`Oc1[nH]c2cc(Cl)ccc2c1/C=c1/ccc2c(c1)N=C(c1cc(F)cc(F)c1)N=2` gave a GI50 of 2510 nM and a TGI of 5.98 µM.
In the case of `COc1cc([N+](=O)[O-])c2ncccc2c1[N+](=O)[O-]`, the GI50 was 1720 nM and the TGI was 3.67 µM.
`CC/C=C\C/C=C\C[C@H](O)C/C=C1/C(=O)C=C[C@@H]1C/C=C\CCCC(=O)OC` showed a GI50 of 1470 nM and a TGI of 3.16 µM.
Molecule `COc1cccc(/C=C/C(=O)c2cc3c(N)c(C(=O)Nc4cccc5ccccc45)sc3nc2C)c1` has a GI50 of 1070 nM and a TGI of 3 µM.
`C=CC1CN2CCC1CC2C(O)c1ccnc2ccccc12` (configuration not stated) was tested, and the GI50 was > 100000 nM and the TGI was > 100 µM.
`CCC(CC(C)C)Nc1ccc(NC(CC)CC(C)C)cc1` (configuration not stated) showed a GI50 of 11700 nM and a TGI of 24 µM.
`O=S(=O)(NCCCNc1nccc(-c2[nH]c(-c3ccccc3)nc2-c2ccc(F)c(O)c2)n1)c1ccc(C(F)(F)F)cc1` gave a GI50 of 2440 nM and a TGI of 7.7 µM.
